# Assay results taken from patent US4774232A, “Bile-substituting method of treatment for the promotion of fat digestion” (Chinoin Gyogyszer Es Vegyeszeti Termak Ek Gyara Rt, priority 1985, dated 1988).
# Columns and labels:
# bile-deficient rats [1] = experiment: Absorption of 3H-stearic acid with oral DIMEB in bile-deficient rats (Example 11); assay type: in vivo, CFY female rats; conditions: for Radioactivity in 10 ml of blood: 23.5 mg 3H-stearic acid + 60 mg DIMEB oral
# Procedure: The substitution by DIMEB of the bile in bile-deficiency was studied in rats after ligating the bile duct.
# After being starved for 24 hours, the animals (CFY female rats with an average body weight of 150 g) were subjected to a bile duct-ligation under nembutal anaesthesia. The absorption was investigated in the 48th hour after starving the animals overnight. The animals were starved in the course of the examination, too, but received water ad libitum. One group (consisting of 4 animals) received 22.2 mg of ^3 H-stearic acid (specific radioactivity: 92.5 kBq/mg), whereas the other group (consisting of 4 animals) was administered 23.5 mg of ^3 H-stearic acid and 60 mg of DIMEB in 2 ml of distilled water. The substances were suspended ultrasonically in the distilled water. Thereafter, the radioactivity level of the blood was measured at various intervals by using the liquid scintillation method (Table XII).
# bile-deficient rats [2] = experiment: Substitution of the bile in rats: 5-day fat treatment, faecal, plasma and liver lipids; assay type: in vivo, rats (Etymis rattus var. albino)
# Procedure: In an other series of experiments, the total lipid content of the faeces discharged by bile-deficient rats was studied.
# The oral treatment was started with the daily administration of 1 ml of swine fat or 1 ml of swine fat together with 150 mg of DIMEB, respectively, in the 72nd hour following the ligature. The treatment was continued for 5 days. The faeces was collected in the first 4 days of the treatment. In the 4th hour following the treatment on the 5th day, the experimental animals were decapitated and their samples were worked up. […] An extraordinarily high amount of lipids were eliminated with the faeces of the animals fed with fat. […] Nearly 100 percent of the introduced fat was absorbed under the effect of DIMEB.
# A significant deviation was observed between the groups treated with fat or with fat together with DIMEB, respectively. […] The triglyceride concentration was restored in this group to the control value by the treatment with fat. A significant increase in the triglyceride concentration was induced by the treatment with fat together with DIMEB in comparison to the former group.
# bile-deficient rats [3] = experiment: Absorption of 3H-stearic acid with oral DIMEB in bile-deficient rats (Example 10); assay type: in vivo; conditions: for Radioactivity in 10 ml of blood: 14.7 mg 3H-stearic acid + 50 mg DIMEB oral
# Procedure: The substitution of the bile by DIMEB in bile-deficiency was studied in rats after ligating the bile duct.
# After being starved for 24 hours, the animals were subjected to the bile duct-ligation under nembutal anaesthesia. The absorption was investigated in the 48th hour after starving the animals overnight. The animals were also starved in the course of the examination; but received water ad libitum. One group (3 animals) received 12.8 mg of ^3 H-stearic acid (specific radioactivity: 171.12 kBq/mg), whereas the other group (3 animals) was administered 14.7 mg of ^3 H-stearic acid and 50 mg of DIMEB in 2 ml of distilled water. The substances were suspended in the distilled water ultrasonically. Thereafter, the radioactivity level of the blood was measured at various intervals, by using the liquid scintillation method (Table XI).
# [4] = bile acid-deficient rats, daily 1 ml fat + 150 mg DIMEB, treatment lasting 5 days
smiles,measurement,setting,value
"COC[C@H]1O[C@@H]2O[C@H]3[C@H](O)[C@@H](OC)[C@@H](O[C@H]4[C@H](O)[C@@H](OC)[C@@H](O[C@H]5[C@H](O)[C@@H](OC)[C@@H](O[C@H]6[C@H](O)[C@@H](OC)[C@@H](O[C@H]7[C@H](O)[C@@H](OC)[C@@H](O[C@H]8[C@H](O)[C@@H](OC)[C@@H](O[C@H]1[C@H](O)[C@H]2OC)O[C@@H]8COC)O[C@@H]7COC)O[C@@H]6COC)O[C@@H]5COC)O[C@@H]4COC)O[C@@H]3COC [DIMEB, heptakis(2,6-di-O-methyl)-β-cyclodextrin]",Radioactivity in 10 ml of blood,"bile-deficient rats [1]; 1 h, animal 5",1.18 percentage
same,Radioactivity in 10 ml of blood,"bile-deficient rats [1]; 1 h, animal 6",1.41 percentage
same,Radioactivity in 10 ml of blood,"bile-deficient rats [1]; 1 h, animal 7",1.66 percentage
same,Radioactivity in 10 ml of blood,"bile-deficient rats [1]; 1 h, animal 8",0.50 percentage
same,Radioactivity in 10 ml of blood,"bile-deficient rats [1]; 1 h, mean",1.19 percentage
same,Radioactivity in 10 ml of blood,"bile-deficient rats [1]; 2 h, animal 5",1.46 percentage
same,Radioactivity in 10 ml of blood,"bile-deficient rats [1]; 2 h, animal 6",1.52 percentage
same,Radioactivity in 10 ml of blood,"bile-deficient rats [1]; 2 h, animal 7",1.52 percentage
same,Radioactivity in 10 ml of blood,"bile-deficient rats [1]; 2 h, animal 8",0.64 percentage
same,Radioactivity in 10 ml of blood,"bile-deficient rats [1]; 2 h, mean",1.28 percentage
same,Radioactivity in 10 ml of blood,"bile-deficient rats [1]; 3 h, animal 5",1.29 percentage
same,Radioactivity in 10 ml of blood,"bile-deficient rats [1]; 3 h, animal 6",1.63 percentage
same,Radioactivity in 10 ml of blood,"bile-deficient rats [1]; 3 h, animal 7",1.37 percentage
same,Radioactivity in 10 ml of blood,"bile-deficient rats [1]; 3 h, animal 8",0.61 percentage
same,Radioactivity in 10 ml of blood,"bile-deficient rats [1]; 3 h, mean",1.22 percentage
same,Radioactivity in 10 ml of blood,"bile-deficient rats [1]; 4 h, animal 5",1.42 percentage
same,Radioactivity in 10 ml of blood,"bile-deficient rats [1]; 4 h, animal 6",1.67 percentage
same,Radioactivity in 10 ml of blood,"bile-deficient rats [1]; 4 h, animal 7",1.56 percentage
same,Radioactivity in 10 ml of blood,"bile-deficient rats [1]; 4 h, animal 8",0.60 percentage
same,Radioactivity in 10 ml of blood,"bile-deficient rats [1]; 4 h, mean",1.31 percentage
same,Radioactivity in 10 ml of blood,"bile-deficient rats [1]; 5 h, animal 5",1.39 percentage
same,Radioactivity in 10 ml of blood,"bile-deficient rats [1]; 5 h, animal 6",1.73 percentage
same,Radioactivity in 10 ml of blood,"bile-deficient rats [1]; 5 h, animal 7",1.54 percentage
same,Radioactivity in 10 ml of blood,"bile-deficient rats [1]; 5 h, animal 8",0.69 percentage
same,Radioactivity in 10 ml of blood,"bile-deficient rats [1]; 5 h, mean",1.34 percentage
same,Radioactivity in 10 ml of blood,"bile-deficient rats [1]; 6 h, animal 5",1.41 percentage
same,Radioactivity in 10 ml of blood,"bile-deficient rats [1]; 6 h, animal 6",1.92 percentage
same,Radioactivity in 10 ml of blood,"bile-deficient rats [1]; 6 h, animal 7",1.76 percentage
same,Radioactivity in 10 ml of blood,"bile-deficient rats [1]; 6 h, animal 8",0.73 percentage
same,Radioactivity in 10 ml of blood,"bile-deficient rats [1]; 6 h, mean",1.45 percentage
same,Radioactivity in 10 ml of blood,"bile-deficient rats [1]; 8 h, animal 5",1.43 percentage
same,Radioactivity in 10 ml of blood,"bile-deficient rats [1]; 8 h, animal 6",1.90 percentage
same,Radioactivity in 10 ml of blood,"bile-deficient rats [1]; 8 h, animal 7",1.85 percentage
same,Radioactivity in 10 ml of blood,"bile-deficient rats [1]; 8 h, animal 8",0.72 percentage
same,Radioactivity in 10 ml of blood,"bile-deficient rats [1]; 8 h, mean",1.47 percentage
same,Radioactivity in 10 ml of blood,"bile-deficient rats [1]; 10 h, animal 5",1.57 percentage
same,Radioactivity in 10 ml of blood,"bile-deficient rats [1]; 10 h, animal 6",1.56 percentage
same,Radioactivity in 10 ml of blood,"bile-deficient rats [1]; 10 h, animal 7",1.45 percentage
same,Radioactivity in 10 ml of blood,"bile-deficient rats [1]; 10 h, animal 8",0.89 percentage
same,Radioactivity in 10 ml of blood,"bile-deficient rats [1]; 10 h, mean",1.37 percentage
same,Radioactivity in 10 ml of blood,"bile-deficient rats [1]; 24 h, animal 5",1.50 percentage
same,Radioactivity in 10 ml of blood,"bile-deficient rats [1]; 24 h, animal 6",1.94 percentage
same,Radioactivity in 10 ml of blood,"bile-deficient rats [1]; 24 h, animal 7",1.59 percentage
same,Radioactivity in 10 ml of blood,"bile-deficient rats [1]; 24 h, animal 8",1.95 percentage
same,Radioactivity in 10 ml of blood,"bile-deficient rats [1]; 24 h, mean",1.74 percentage
same,Blood level relative to animals treated with stearic acid alone,bile-deficient rats [1]; 24th hour,2 times
same,Blood radioactivity relative to animals treated with stearic acid alone,bile-deficient rats [1]; time not given,4.4 times
same,Fat discharge (total lipid content of the faeces),"bile-deficient rats [2]; bile acid-deficient rats, daily 1 ml fat + 150 mg DIMEB for 5 days, faeces of first 4 days",6.16 ± 2.37 g/100 g
same,Liver triglycerides,bile-deficient rats [2]; [4],9.1 ± 2.2 mg/100 ml
same,Plasma total lipids,bile-deficient rats [2]; [4],688.7 ± 95.8 mg/100 ml
same,Plasma triglycerides,bile-deficient rats [2]; [4],71.9 ± 19.1 mg/100 ml
same,Introduced fat absorbed,"bile-deficient rats [2]; bile-deficient rats, daily 1 ml swine fat + 150 mg DIMEB",~100%
same,Radioactivity in 10 ml of blood,"bile-deficient rats [3]; 1 h, animal 4",0.86 percentage
same,Radioactivity in 10 ml of blood,"bile-deficient rats [3]; 1 h, animal 5",3.45 percentage
same,Radioactivity in 10 ml of blood,"bile-deficient rats [3]; 1 h, animal 6",1.61 percentage
same,Radioactivity in 10 ml of blood,"bile-deficient rats [3]; 1 h, mean",1.97 percentage
same,Radioactivity in 10 ml of blood,"bile-deficient rats [3]; 2 h, animal 4",1.05 percentage
same,Radioactivity in 10 ml of blood,"bile-deficient rats [3]; 2 h, animal 5",3.25 percentage
same,Radioactivity in 10 ml of blood,"bile-deficient rats [3]; 2 h, animal 6",2.56 percentage
same,Radioactivity in 10 ml of blood,"bile-deficient rats [3]; 2 h, mean",2.29 percentage
same,Radioactivity in 10 ml of blood,"bile-deficient rats [3]; 3 h, animal 4",1.14 percentage
same,Radioactivity in 10 ml of blood,"bile-deficient rats [3]; 3 h, animal 5",3.22 percentage
same,Radioactivity in 10 ml of blood,"bile-deficient rats [3]; 3 h, animal 6",2.39 percentage
same,Radioactivity in 10 ml of blood,"bile-deficient rats [3]; 3 h, mean",2.25 percentage
same,Radioactivity in 10 ml of blood,"bile-deficient rats [3]; 4 h, animal 4",1.19 percentage
same,Radioactivity in 10 ml of blood,"bile-deficient rats [3]; 4 h, animal 5",3.06 percentage
same,Radioactivity in 10 ml of blood,"bile-deficient rats [3]; 4 h, animal 6",2.28 percentage
same,Radioactivity in 10 ml of blood,"bile-deficient rats [3]; 4 h, mean",2.18 percentage
same,Radioactivity in 10 ml of blood,"bile-deficient rats [3]; 5 h, animal 4",1.24 percentage
same,Radioactivity in 10 ml of blood,"bile-deficient rats [3]; 5 h, animal 5",3.08 percentage
same,Radioactivity in 10 ml of blood,"bile-deficient rats [3]; 5 h, animal 6",2.27 percentage
same,Radioactivity in 10 ml of blood,"bile-deficient rats [3]; 5 h, mean",2.20 percentage
same,Radioactivity in 10 ml of blood,"bile-deficient rats [3]; 6 h, animal 4",1.25 percentage
same,Radioactivity in 10 ml of blood,"bile-deficient rats [3]; 6 h, animal 5",2.91 percentage
same,Radioactivity in 10 ml of blood,"bile-deficient rats [3]; 6 h, animal 6",2.56 percentage
same,Radioactivity in 10 ml of blood,"bile-deficient rats [3]; 6 h, mean",2.24 percentage
same,Radioactivity in 10 ml of blood,"bile-deficient rats [3]; 7 h, animal 4",1.33 percentage
same,Radioactivity in 10 ml of blood,"bile-deficient rats [3]; 7 h, animal 5",3.03 percentage
same,Radioactivity in 10 ml of blood,"bile-deficient rats [3]; 7 h, animal 6",2.67 percentage
same,Radioactivity in 10 ml of blood,"bile-deficient rats [3]; 7 h, mean",2.34 percentage
same,Radioactivity in 10 ml of blood,"bile-deficient rats [3]; 8 h, animal 4",1.37 percentage
same,Radioactivity in 10 ml of blood,"bile-deficient rats [3]; 8 h, animal 5",3.13 percentage
same,Radioactivity in 10 ml of blood,"bile-deficient rats [3]; 8 h, animal 6",2.58 percentage
same,Radioactivity in 10 ml of blood,"bile-deficient rats [3]; 8 h, mean",2.36 percentage
same,Radioactivity in 10 ml of blood,"bile-deficient rats [3]; 10 h, animal 4",1.29 percentage
same,Radioactivity in 10 ml of blood,"bile-deficient rats [3]; 10 h, animal 5",3.26 percentage
same,Radioactivity in 10 ml of blood,"bile-deficient rats [3]; 10 h, animal 6",2.67 percentage
same,Radioactivity in 10 ml of blood,"bile-deficient rats [3]; 10 h, mean",2.41 percentage
same,Radioactivity in 10 ml of blood,"bile-deficient rats [3]; 24 h, animal 4",1.60 percentage
same,Radioactivity in 10 ml of blood,"bile-deficient rats [3]; 24 h, animal 5",4.56 percentage
same,Radioactivity in 10 ml of blood,"bile-deficient rats [3]; 24 h, animal 6",4.00 percentage
same,Radioactivity in 10 ml of blood,"bile-deficient rats [3]; 24 h, mean",3.39 percentage
same,Blood level relative to animals treated with stearic acid only,bile-deficient rats [3]; 24th hour,1.4 times
